The data set is described as follows: gradient 5% acetonitrile 3 min, to 50% in 2 min, to 85% in 15 min, held 3 min, 100 µL/min. As to conditions: column: Zorbax Extend-C18 2.1 x 50 mm; eluents: water / acetonitrile, 0.1% formic acid. Summed up:
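In both positive and negative ionization mode, a quadrupole time-of-flight mass spectrometer coupled to HPLC analyzed pure standards run in mixtures of ~100 molecules. The Zorbax Extend-C18 column (2.1 × 50 mm, 1.8 μm) was operated at 100 μL/min with water and acetonitrile, each containing 0.1% formic acid. The dead volume was 40 μL and the dwell volume 900 μL. Retention time came from adduct peaks that were computationally picked and individually inspected by hand.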
As for `Cc1nc(C2CCOCC2)n(C2CCN(S(=O)(=O)c3c(C)c(C)cc(C)c3C)C2)n1` (stereo not drawn), the RP-LC retention time was 874 s.
The value for `CNC(=O)c1ccsc1NC(=O)c1coc2ccccc2c1=O` was 709 s.
In the case of `CCn1cc2c(n1)c(=O)n(Cc1ccccc1)c(=O)n2CC(=O)NCc1ccccc1Br` it was 890 s; in that of `CCC(=O)N1CCc2cc(N3CC(C(=O)N4CCN(C)CC4)CC3=O)ccc21` (stereo not drawn), 563 s; in that of `O=c1ccc(N2CCC(NS(=O)(=O)c3cccc(F)c3)C2)nn1CC1CC1` (stereo not drawn), 773 s.
In the case of `Cc1ccc(NS(=O)(=O)c2cc3n(c2)CCN(CC(C)C)C3=O)cc1C` it was 846 s; in that of `COc1ccc2c(c1)C1CC(C)(O2)N(C)C(=O)C1S(=O)(=O)c1ccc(C)cc1` (stereo not drawn), 1020 s.
`CNC(=O)c1cnc(-c2ccc(Cl)cc2)n(CC(=O)N2CCc3ccccc32)c1=O` came in with an RP-LC retention time of 997 s.
The value for `Cc1ccc(-c2ccc(-n3nc(C)c(S(=O)(=O)NCCN4CCCCC4C)c3C)nn2)cc1C` (stereo not drawn) was 748 s.
The value for `O=C(c1nc2nc(-c3cccs3)cc(C(F)(F)F)n2n1)N1CCN(c2ccccn2)CC1` was 672 s; that for `CC(C)Oc1ccc(-c2noc(CN3N=NC4C(=O)N(c5ccc(C(C)C)cc5)C(=O)C43)n2)cc1` (stereo not drawn) was 1180 s; that for `c1csc(CN2CCC(c3nc(-c4cnccn4)n[nH]3)CC2)c1` was 555 s.
`c1cc(-c2sc(-c3ccncc3)c(-c3ccncc3)c2-c2ccncc2)ccn1` came in with an RP-LC retention time of 575 s.
In the case of `CCN(c1ccccc1)S(=O)(=O)c1cc(-c2[nH]ncc2C(=O)N2CCCC2)oc1C` it was 781 s; in that of `COc1cccc(-n2c(=O)c3sccc3n(Cc3nc(-c4ccc(Cl)c(F)c4)no3)c2=O)c1`, 1060 s; in that of `COc1ccc(CC(=O)Nc2ccc3c(c2)Sc2ncccc2C(=O)N3C(C)C)cc1`, 844 s.
The compound `CC1CCN(S(=O)(=O)c2ccc3c(c2)CCCC(=O)N3CC(=O)Nc2ccccc2)CC1` gave an RP-LC retention time of 958 s.
The value for `CS(=O)(=O)Nc1ccc(C2(C(=O)NCc3ccco3)CCCCC2)cc1` was 806 s.
In the case of `COc1ccc(C(=O)N2CCCn3nc(-c4cccs4)cc3C2)cn1` it was 766 s.
As for `COc1ccc(CCC(=O)NC2CCN(c3nnc4ccc(C(F)(F)F)cn34)CC2)cc1`, the RP-LC retention time is 767 s.
In the case of `CCN(CC)S(=O)(=O)c1cccc(-c2nc(-c3ccc(C)cc3)no2)c1` it was 1320 s; in that of `O=C(Nc1cccc(-c2noc(C3CC3)n2)c1)c1n[nH]c2c1CCCC2`, 941 s; in that of `COc1ccc(OCC(=O)N2CCN(c3nccn3-c3ccccc3F)CC2)cc1`, 573 s.
As for `COc1ccc2c(c1)C1(CCN(C(=O)Nc3ccccc3F)C1)C(=O)N2` (stereo not drawn), the RP-LC retention time was determined as 701 s.
Consider `COc1ccc(-n2nc(N3CCCC(C(=O)NCc4cccc(OC)c4)C3)ccc2=O)cc1` (stereo not drawn), for which the RP-LC retention time turned out to be 763 s.
As to `Cc1nn(C)c(C)c1S(=O)(=O)N1CCC(c2noc(-c3ccccc3)n2)C1` (stereo not drawn), the RP-LC retention time was 856 s.
In the case of `O=C(c1ccc2c(c1)OCO2)N1CCN(c2cc(-c3ccccc3)[nH]n2)CC1` it was 733 s; in that of `CC1CCN(C(=O)CCC(=O)N2CCN(c3nc4cccnc4s3)CC2)CC1`, 688 s; in that of `O=C([C@@H]1C[C@H](F)CN1C(=O)Nc1ccc(F)cc1)N1CCCCC1`, 690 s.
The value for `Cc1cc(NS(=O)(=O)c2cn(CC(C)C)c3ncccc23)ccc1F` was 989 s; that for `O=C(Cc1c[nH]c2ccccc12)Nc1cc(-c2ccsc2)no1` was 876 s; that for `CCOC(=O)c1cc(C2CC2)nc2c1c(=O)n(Cc1ccc(F)cc1)c(=O)n2C` was 1200 s.
The value for `Cc1ccc(=O)n(CCNC(=O)c2cncc(Br)c2)n1` was 579 s; that for `c1cnc2c(c1)ccc1ncccc12` was 674 s; that for `Cc1cc(C)cc(N2CCC(NC(=O)c3ccc(C#N)cc3)C2=O)c1` (stereo not drawn) was 854 s.
`O=C(c1ccoc1)N1CC(Oc2cccc(-c3nc(-c4ccccc4)no3)c2)C1` had an RP-LC retention time of 1070 s.
In the case of `CCc1ccccc1NC(=O)N1CCC(c2cc(=O)n3nccc3n2C)CC1` it was 663 s; in that of `COc1cccc(C(O)CN2CCN(c3cccc(C)c3)CC2)c1` (stereo not drawn), 663 s.
On to `O=C1CC[C@@]2(O)C3Cc4ccc(O)c5c4C2(CCN3CC2CC2)[C@H]1O5` (stereo partly drawn), for which the RP-LC retention time turned out to be 599 s.
In the case of `COc1ccc(NC(=O)Cn2cnc3c(sc4nc(-c5ccccc5)ccc43)c2=O)cc1OC` it was 899 s; in that of `CCc1ccccc1NC(=O)C(=O)NCC1CCN(CCOC)CC1`, 562 s; in that of `CCCNC(=O)c1ncn2c1C(=O)N(C1CC1)C(C)(C(=O)NCc1ccc(F)cc1)C2` (stereo not drawn), 692 s.
In the case of `CN1C(=O)Cc2cc(NC(=O)CN3C(=O)c4ccccc4C3=O)ccc21` it was 628 s.
The value for `O=C(c1cccc([N+](=O)[O-])c1)N1CCN(C(c2ccccc2)c2ccccc2)CC1` was 757 s; that for `COc1cccc2sc(N(CCCN(C)C)C(=O)c3cccc(C(F)(F)F)c3)nc12` was 622 s; that for `CCOC(=O)c1cn2nc(SCc3ccccc3)nc2nc1C` was 1000 s.
Take `O=S(=O)(c1ccccc1F)N1CCc2nc(-c3ccc(Cl)cc3)ncc2C1`: the RP-LC retention time was 1190 s.
`CCCCC(=O)Nc1nnc(SCc2nnc(-c3ccccc3)o2)s1` yielded an RP-LC retention time of 854 s.
The value for `CCSc1nnc(NC(=O)c2cc(=O)c(OCc3ccc(F)cc3)co2)s1` was 791 s; that for `O=C(NCCCN1CCCC1)c1ccc(-c2ccc(NCc3ccccc3)nn2)cc1` was 586 s.
In the case of `CCn1cc(CCNC(=O)Nc2cc(C)ccc2C)c2cccnc21` it was 723 s; in that of `Cc1ccc(-c2noc(-c3cccc(S(=O)(=O)Nc4cccnc4)c3)n2)cc1`, 941 s; in that of `CCC(=O)N1CCC(Oc2nccnc2N2CCOCC2)C1` (stereo not drawn), 646 s.
In the case of `Cc1cccc(-c2noc(C3CCCN3C(=O)NCc3ccc(F)cc3)n2)c1` (stereo not drawn) it was 974 s; in that of `COc1ccccc1N1CCN(c2ccc(-c3nc(-c4ccccc4)no3)cn2)CC1`, 1350 s; in that of `Cc1ccnc(N2CCCC(C(=O)N3CCC(C(N)=O)(N4CCCCC4)CC3)C2)n1` (stereo not drawn), 542 s.
On to `COc1cc2c(cc1OC)C(C(=O)NCc1ccc3c(c1)OCO3)C1c3ccccc3CCN1C2=O` (stereo not drawn), for which the RP-LC retention time was found to be 788 s.
In the case of `CC(C)C(=O)NCCc1csc(C2CCCN(C(=O)c3cc4ccccc4[nH]3)C2)n1` (stereo not drawn) it was 803 s.
